# Reference: patent US7749976B2, “Isolated PTPMT1 protein which mediates insulin production and uses thereof” (The Regents of the University of California, priority 2005, dated 2010)
# Tests used:
# Assay type in all cases: cell-based, rat
# INS-1 832/13 cells [1] = assay: ATP and ADP assays in siRNA-treated INS-1 832/13 cells
# Experimental: (§1) PTPMT1 expression in INS-1 832/13 cells was knocked down using 200 pmol of Ambion siRNA (sense: 5′-GUCUGUGGAUGACAAAGAAtt-3′ (SEQ ID NO:3), antisense: UUCUUUGUCAUCCACAGACtt-3′ (SEQ ID NO:4)) in an Amaxa nucleoporator with buffer T on program T-20, according to the manufacturer's protocol. Approximately 72 hrs post siRNA treatment, cells were treated as outlined in the text, pelleted and lysed in 2% TCA via sonication and/or vortexing. Precipitates were pelleted at 13,200 rpm for 2 minutes. The supernatant was removed, neutralized with 0.5 M Tris pH 7.4, and analyzed for ATP using Promega's ENLITEN luciferase bioluminescence reagent at an appropriate dilution. All ATP measurements were normalized to protein levels, as measured by the BCA method (Pierce). ADP levels were determined by converting ADP to ATP with pyruvate kinase, remeasuring ATP by the above assay, and subtracting the initial ATP readings, as reported (Gorman et al., 2003).
# Given PTPMT1's likely juxtaposition with members of the respiratory chain on the inner mitochondrial membrane, assessment of PTPMT1's endogenous function was carried out by measuring its effect on cellular ATP levels. […] Seventy-two hours post siRNA treatment, cells were washed and incubated in a 3.0 mM glucose medium for 2 hr. Cells were then lysed and ATP levels analyzed using a luciferase based luminometry reaction. Strikingly, knockdown of PTPMT1 expression increased ATP levels by an average of 82% over control cells across three separate experiments (FIG. 10B). […] ATP/ADP ratio (FIG. 10C). […] AMPK serves as a sensor of cellular energy status, becoming dephosphorylated (inactivated) when the cellular AMP:ATP ratio decreases. Consistent with the above data, AMPK is more highly phosphorylated in the control cells following the above incubation in low glucose (FIG. 10D). Thus, knockdown of PTPMT1 results in a true increase in cellular energy status, as opposed to merely a general increase in the cellular adenine pool.
# INS-1 832/13 cells [2] = assay: Glucose-stimulated insulin secretion assay; conditions: basal (3 mM) and glucose stimulated (15 mM) conditions, out to 120 min
# Experimental: INS-1 832/13 cells (5×10^6 per reaction) were electroporated as above, and split between 4 wells of a 12-well plate. After 72 hours, cells were washed once with low glucose (3 mM) standard assay buffer (SAB: 114 mM NaCl, 4.7 mM KCl, 1.2 mM KH2PO4, 1.16 mM MgSO4, 20 mM HEPES pH 7.2, 25.5 mM NaHCO3, 10 mM CaCl2, 0.2% BSA), and then preincubated for 2 hours in fresh low glucose SAB. After preincubation, 1 mL of low or high (15 mM) glucose SAB was added to each well. At the end of the incubation time, the SAB was removed and saved, and the cells were washed once in PBS, and lysed by freezing and thawing in a Tris-EDTA solution (20 mM Tris pH 7.4, 20 mM EDTA pH 8.0, 10 mM DTT, protease inhibitors). A Bio-Rad protein assay was performed on each lysate sample to standardize the insulin assay results for protein. The ^125I-insulin Coat-A-Count RIA (Diagnostic Products Corp.) was used to assay SAB samples for insulin content.
# To test this, INS-1 832/13 cells were again treated with luciferase (control) or PTPMT1 siRNA. Seventy-two hours post siRNA treatment, cells were washed with PBS, and incubated in media containing 3 mM glucose for 2 hrs to normalize insulin release. Fresh media containing either 3 mM (low) or 15 mM (high) glucose media was then added to the cells and insulin secretion analyzed out to 120 min. […]
# PTPMT1 = assay: Knockdown of PTPMT1 expression (immunoblot); conditions: Amaxa nucleoporation, INS-1 832/13 cells
# Experimental: as §1
# FIG. 10 illustrates that PTPMT1 is involved in the regulation of mitochondrial ATP production. […] In C whole cell ADP was measured as above.
# To simultaneously assess the effect that knockdown of PTPMT1 has on mitochondrial phosphoproteins and PI(5)P levels, its expression was knocked-down in a large quantity of INS-1 832/13 cells using adenovirus-delivered siRNA. […]
substance,measurement,setting,value
"PTPMT1 siRNA: Ambion siRNA sense 5′-GUCUGUGGAUGACAAAGAAtt-3′ (SEQ ID NO:3), antisense UUCUUUGUCAUCCACAGACtt-3′ (SEQ ID NO:4) (sense GUCUGUGGAUGACAAAGAATT; antisense UUCUUUGUCAUCCACAGACTT; chemistry not given here)",Increase in ATP levels over control cells,"INS-1 832/13 cells [1]; 72 h post siRNA, 2 hr in 3.0 mM glucose, average of three experiments",82%
same,ADP levels versus control,"INS-1 832/13 cells [1]; 72 h post siRNA, low glucose 2 h","Very little, if any, difference"
same,ATP levels versus control with FCCP,INS-1 832/13 cells [1]; same buffer containing 10 μM FCCP,no difference in ATP levels
same,Insulin secretion versus control,INS-1 832/13 cells [2],increased insulin secretion at nearly all time points
same,Endogenous PTPMT1 expression,PTPMT1,highly effective at ablating endogenous PTPMT1 expression
